Source: PubChem BioAssay AID179 (DTP/NCI, 2004)
Activity calls are given as the source filed them.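 The calls were made as follows: active = compounds giving half or more protection of infected cells from virus-caused growth loss, again on retest; inactive = the rest.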

Test system: CEM cells HIV-1 protection, formazan growth assay
Assay: NCI AIDS Antiviral Assay
Details: for IC50: measured here: growth of uninfected CEM cells
How it was run: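 Screen of anti-HIV-1 activity in human CEM cells using a formazan-based growth measurement at five drug concentrations. Hits with 50% or greater protection were repeated, and confirmation required reproducible complete protection.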

| Compound | EC50 [µM] | IC50 [µM] | outcome |
| --- | --- | --- | --- |
| COC(=O)/C=C1/C(COC(c2ccccc2)(c2ccccc2)c2ccccc2)OC(n2ccc(=O)[nH]c2=O)C1O[Si](C)(C)C(C)(C)C (stereo unspecified) | > 200 | 10.7 | – |
| COc1cc2c(c(OC)c1OC)CCC1(C)C(=O)NN=C21 (stereo unspecified) | > 871 | 275 | – |
| Oc1ccc(C2=CSC3=NCCN23)cc1 | – | – | inactive |
| CC(NC(=O)/C(=C/c1ccccc1O)NC(=O)c1ccccc1)C(=O)O (stereo unspecified) | > 200 | > 200 | – |
| CC1(Br)Cc2ccccc2C1=O (stereo unspecified) | – | – | inactive |
| COc1ccc(N2C(=O)C(=O)N(c3ccccc3[N+](=O)[O-])C2=S)cc1 | > 200 | 27.5 | – |
| C1CN1c1nc(N2CC2)nc(N2CC2)n1 | > 91.2 | 1.05 | – |
| COC(=O)c1cc(=O)nc2cc3cccccc3n12 | – | – | inactive |
| COC1=CC23CCCN2CCc2cc4c(cc2C3C1O)OCO4 (stereo unspecified) | – | – | inactive |
| N#Cc1c(Cl)c2cccnc2n2c1nc1ccccc12 | > 200 | 0.339 | – |
| CC(=O)Nc1ccc2oc3ccc(Cl)cc3c(=O)c2c1 | > 174 | 77.6 | – |
| Cc1cc(NS(=O)(=O)c2ccc(NC(=O)c3ccc4nc5ccccc5c(Nc5ccc(S(=O)(=O)N=C(N)N)cc5)c4c3)cc2)no1 | > 75.9 | 24.5 | – |
| O=S(c1ccccc1)C1CC2CC3(CCC21O)OCCO3 (stereo unspecified) | > 200 | > 200 | – |
| S=C1CC(c2ccccc2)Sc2cc(Cl)ccc2N1 (stereo unspecified) | > 200 | 1.26 | – |
| CCCCc1ccc(-n2sc3ncc(C)cc3c2=O)cc1 | 1.23 | 21.9 | – |
| COc1ccc2c(c1OC)C1=NCCc3c(OC)c(OC)c(OC)c-2c31 | – | – | inactive |
| Cc1cn(C2C=CC(CO)O2)c(=O)[nH]c1=O (stereo unspecified) | 1.62 | 186 | – |
| COC(=O)/C(C#N)=C1\NC(=O)c2ccccc21 | > 83.2 | > 83.2 | – |
| C=C1SC(=Nc2ccc(Cl)cc2)N(c2nc(Cl)nc(Cl)n2)C12CCCCC2 | > 100 | > 100 | – |
| COC(CN(C(=O)c1ccccc1)C1CCC2(SCCS2)c2[nH]c3ccccc3c21)OC (stereo unspecified) | > 200 | 14.5 | – |
| CN1CCN(C(=S)N(C)C(=O)c2ccc(Cl)cc2)CC1 | > 794 | 389 | – |
| CSCCOC(=O)c1cc(NC(=S)c2ccoc2C)ccc1Cl | 0.0182 | 19.5 | – |

| Compound | EC50 [µM] | IC50 [µM] | outcome |
| --- | --- | --- | --- |
| CCOC(=O)C(C(=O)OCC)P(=S)(S)c1ccccc1 (stereo unspecified) | > 4370 | > 4370 | – |
| CC(C)CN1CC(=O)N2Cc3ccccc3CN2C(=O)C1 | > 200 | > 200 | – |
| O=C1CCC2(CCCCC2)N1 | > 200 | > 200 | – |
| CCOC(=O)CN1C(=O)c2c(NC(=O)C(=O)O)cccc2S1(=O)=O | > 200 | > 200 | – |
| N#Cc1c(=N)cc2c3ccccc3oc3c(C#N)c(N)[nH]c1c32 | > 200 | 195 | – |
| COc1ccc(/C=N/N=C(\[O-])c2ccncc2)cc1F.COc1ccc(/C=N\N=C(/[O-])c2ccncc2)cc1F.[Cu+2] | > 100 | 18.6 | – |
| Cc1ccc(NC(=O)CC2SC(=Nc3ccc(Cl)cc3)NC2=O)cc1C (stereo unspecified) | > 51.3 | > 51.3 | – |
| COC1(OC)N=C(N)C2(C#N)C(C)CC(=O)N(N(C)C)C12C#N (stereo unspecified) | > 200 | > 200 | – |
| COc1cc(/C=C(\C#N)c2ccccn2)cc(Br)c1O | > 200 | 28.2 | – |
| COc1ccc(-c2cc(-c3ccccc3)c(C#N)c(=O)n2C2OC(COC(C)=O)C(OC(C)=O)C(OC(C)=O)C2OC(C)=O)cc1 (stereo unspecified) | > 15.8 | > 15.8 | – |
| CC(=O)CC(=O)NC=O | > 263 | > 263 | – |
| NC(N)=NS(=O)(=O)c1ccc(Nc2c3ccccc3nc3c(C(=O)Nc4ccc(S(N)(=O)=O)cc4)cccc23)cc1 | 8.32 | 31.6 | – |
| Cc1cn(C2CC3C(COC(=O)N3O)O2)c(=O)[nH]c1=O (stereo unspecified) | 50.1 | > 200 | – |
| COc1ncc(/C=C2\OC(=O)c3ccccc32)c(OC)n1 | > 200 | > 200 | – |
| CP(C)CC[PH+](CC[PH+](C)C)CC[PH+](C)C.[C-]#[O+].[C-]#[O+].[W] | – | – | inactive |
| N#CC(c1ccc(O)cc1)N1CCN(C(C#N)c2ccc(O)cc2)CC1 (stereo unspecified) | > 200 | > 200 | – |
| CC1CC2C3CCC4=CC(=O)C=CC4(C)C3(F)C(O)CC2(C)C1(O)C(=O)COP(=O)(O)O (stereo unspecified) | – | – | inactive |
| O=c1/c(=C\c2ccccc2)sc2n1C(c1ccccc1)C1(O)CCCCC1N=2 (stereo unspecified) | > 200 | 60.3 | – |
| COc1ccc(C2CC(=O)c3ccccc3O2)cc1 (stereo unspecified) | > 200 | 97.7 | – |
| CC(=O)c1cc2ccccc2oc1=O | > 138 | > 138 | – |
| CCN(CC)C/C(C)=C(/c1ccccc1)c1ccccc1S(N)(=O)=O | > 200 | > 200 | – |
| C[N+]1=C(c2ccc[nH]2)CC(C(=O)[O-])CC1 (stereo unspecified) | > 200 | > 200 | – |

| Compound | EC50 [µM] | IC50 [µM] | outcome |
| --- | --- | --- | --- |
| O=C1/C=C(/c2ccc(O)cc2)[C@@H](O)Cc2ccc(O)cc2O1 | > 200 | > 200 | – |
| CCOC(=O)/C(=C/c1ccc(N(CCC#N)CCC#N)cc1C)NC(=O)/C=C/c1ccccc1 | – | – | inactive |
| N#CC1(c2ccccc2)CCOCC1 | > 501 | > 501 | – |
| NS(=O)(=O)c1ccc(Nc2c3ccc(Cl)cc3nc3ncccc23)cc1 | – | – | inactive |
| CN=C(n1ccnc1)n1ccnc1 | > 200 | > 200 | – |
| O=C(Nc1ccc(Cl)cc1)NS(=O)(=O)c1c(-c2ccccc2)oc2ccccc2c1=O | – | – | inactive |
| CS(=O)(=O)c1ccc(NNc2cc(=O)[nH]c(=O)[nH]2)cc1 | > 200 | 70.8 | – |
| CCOC(=O)/C=C/c1cccc(C#N)c1 | > 178 | 87.1 | – |
| COc1cc2c(c(O)c1OC)C(O)C1CCC(=O)N1C2c1cccc2ccccc12 (stereo unspecified) | > 200 | 52.5 | – |
| CCC1(c2ccccc2)Sc2ccccc2-n2cccc2C1=O (stereo unspecified) | 18.2 | 155 | – |
| Cc1ccccc1NC(=O)C(=O)C1CN(c2ccccc2)N=C1N (stereo unspecified) | > 209 | > 209 | – |
| C=C1C[C@H]2[C@@H]3C=C(C)C4=CC(=O)CC[C@]4(C)[C@H]3CC[C@]2(C)[C@@]1(OC(C)=O)C(C)=O | > 200 | 28.2 | – |
| Cc1cccc2c1Oc1cc(Cl)ccc1C2NC(=O)CCN1CCCCC1 (stereo unspecified) | > 200 | 11.2 | – |
| Cc1cc(-c2ccc(N=Nc3ccc4c(S(=O)(=O)O)cc(S(=O)(=O)O)c(N)c4c3O)c(C)c2)ccc1N=Nc1ccc2c(S(=O)(=O)O)cc(S(=O)(=O)O)c(N)c2c1O | > 9.33 | – | – |
| CCOC(=O)C1SCCC1(C)O (stereo unspecified) | – | – | inactive |
| COC(=O)C1([Se]c2ccccc2)CCN2CCC(OCc3ccccc3[N+](=O)[O-])C21 (stereo unspecified) | > 200 | > 200 | – |
| O=C1Nc2ccccc2C1(O)C/C(=N/O)c1ccc2ccccc2c1 (stereo unspecified) | > 107 | > 107 | – |
| CCOC(=O)C(=O)N=Nc1nc2c(O)c3ccccc3c(O)c2s1 | > 15.1 | 8.71 | – |
| O=c1oc2ccccc2c(O)c1C(c1ccc(-c2ccccc2)cc1)c1c(O)c2ccccc2oc1=O | > 200 | 35.5 | – |
| CC(=O)NC1(C)CCC(C(C)(C)NC(C)=O)CC1 (stereo unspecified) | > 200 | > 200 | – |
| COC(=O)C(C(=O)C(=O)Nc1cccc(OC)c1)c1cnc2ccccc2n1 (stereo unspecified) | > 69.2 | > 69.2 | – |
| Cn1c(O)c(N=NC(N)=S)c2ccccc21 | > 200 | 186 | inactive |

| Compound | EC50 [µM] | IC50 [µM] | outcome |
| --- | --- | --- | --- |
| C=C1CC(CC)(CCN2C(=O)c3ccccc3C2=O)OC1=O (stereo unspecified) | > 209 | 10.5 | – |
| O=S1(=O)c2ccccc2C(c2ccccc2)(c2ccccc2)N1c1ccccc1 | > 75.9 | 55 | – |
| COC1C(O)CC(=O)OC(C)C/C=C/C=C/C(OC2CCC(N(C)C)C(C)O2)C(C)CC(CC=O)C1OC1OC(C)C(OC2CC(C)(O)C(O)C(C)O2)C(N(C)C)C1O (stereo unspecified) | > 200 | > 200 | – |
| CCN1C[C@]2(C)CC[C@H](OC)C34C5C[C@@H]6[C@@H](OC)C[C@@](OC)(C5[C@H]6OCc5ccccc5)C(C13)[C@H](OC(C)=O)[C@@H]42 (stereo partly specified) | > 200 | 105 | – |
| O=C(/N=C1/OC(CN2CCOCC2)CN1C(=O)Nc1ccccc1)Nc1ccccc1 (stereo unspecified) | > 200 | > 200 | – |
| CN(C)c1ccc2nc(CC(O)(C(F)(F)F)C(F)(F)F)ccc2c1 | > 200 | > 200 | – |
| Cc1cc(=O)[nH]c(NNC(C#N)c2ccc([N+](=O)[O-])cc2)n1 (stereo unspecified) | > 63.1 | > 63.1 | – |
| CC(=O)NCCSSSCCNC(C)=O | > 200 | 0.891 | – |
| COc1ccc(OCc2nc3cc(C(F)(F)F)ccc3nc2-c2ccccc2)cc1 | > 200 | > 200 | – |
| Nc1ccc(S(=O)(=O)Nc2nccs2)cc1 | > 200 | > 200 | – |
| CN(C)CCNc1ncnc2nc(-c3ccc4ccccc4c3)[nH]c12 | > 200 | > 200 | – |
| Cc1nc(-c2cccnc2)sc1C(=O)/C=C/c1ccc(Cl)cc1Cl | > 19.1 | > 19.1 | – |
| O=C1CSC(c2cccc(Cl)c2)N1c1ccc(-c2ccc(-n3c(-c4ccccc4)nc4ccccc4c3=O)cc2)cc1 (stereo unspecified) | > 200 | 21.9 | – |
| O=[N+]([O-])c1ccc(S(=O)(=O)N/N=C/c2ccco2)cc1 | > 316 | 166 | – |
| CC1(CO)CCC(n2ccc(N)nc2=O)O1 (stereo unspecified) | 30.9 | > 200 | – |
| O=C1C=C(N2CCN(CCO)CC2)C(=O)c2c(N3CCN(CCO)CC3)cc(N3CCN(CCO)CC3)nc21 | > 158 | > 158 | – |
| CC1OC(OC2C(O)COC(OC3C(C)OC(OC4C(OC(=O)[C@]56CCC(C)(C)C[C@@H]5C5=CCC7[C@@]8(C)C[C@H](O)[C@H](OC9OC(CO)C(O)C(OC%10OC(CO)C(O)C(O)C%10O)C9O)[C@@](C)(CO)[C@@H]8CC[C@@]7(C)[C@]5(C)CC6)OCC(O)C4O)C(O)C3O)C2O)C(O)C(O)C1O (stereo partly specified) | > 58.9 | 21.4 | – |
| O=C(O)c1cc([N+](=O)[O-])c2c(c1)P(=O)(O)c1cc(C(=O)O)cc([N+](=O)[O-])c1O2 | > 200 | > 200 | – |
| N#Cc1cc2c(n(NS(=O)(=O)c3ccccc3)c1=O)CCCC2 | > 200 | > 200 | – |
| Cc1c(C(=O)CC(=O)C(=O)Nc2ccc(Cl)cc2)[n+](=O)c2ccccc2n1[O-] | > 12.6 | > 12.6 | – |
